Results from PMC11458808, “Identification and development of a series of disubstituted piperazines for the treatment of Chagas disease” (European Journal of Medicinal Chemistry, 2022).
In brackets after ≈: the same amount, converted by molar mass.

Experiments:
[1] = system: intracellular T. cruzi X10/7 A1 amastigotes; test: Intracellular T. cruzi assay; type: cell-based, Trypanosoma cruzi; settings: for EC50: Trypanosoma cruzi, potency against intracellular T. cruzi amastigotes, at least three independent replicates, standard deviations ≤0.2, read-out: T. cruzi (pEC50) (converted); for Activity in the intracellular T. cruzi assay (in words): purified compound
Protocol: 1.1 Intracellular T. cruzi assay: Potency against intracellular T. cruzi X10/7 A1 amastigotes was determined as described previously with as sole modification that the compound treatment duration was increased from 72h to 96h.

[2] = system: T. cruzi infected Vero cells; test: Washout assay; type: cell-based, Trypanosoma cruzi; settings: for Relapse Day: 8 days treatment
Protocol: (§1) (Supplementary Information, Fig. S1). We tested 1 in a T. cruzi washout assay to assess the compound's ability to clear all parasites in vitro. In this experiment, T. cruzi, cultured in Vero cells were treated with compound 1 at 20- to 30-fold the EC50 for 8 days (with compound being re-supplemented after 4 days). After treatment, the culture medium containing compound 1 was removed, the cell monolayer was washed extensively and then incubated with fresh medium containing no compound 1. […] The same result was obtained in three independent experiments (Supplementary Information, Table S1). […] We therefore ran a 4-day PK study on 1, dosing at 50 mg/kg twice daily. As the intrinsic clearance was very high, compound 1 was co-dosed with 1-ABT (1-aminobenzotriazole) to inhibit CYP-mediated degradation and maximise exposure. […] As this was a novel series with an unknown mechanism of action, the PKPD drivers were unknown, so this coverage was considered suitable for progression to an animal model of Chagas disease. Compound 1 was dosed twice daily at 50 mg/kg for 5 days in an acute Chagas disease mouse efficacy study. This mouse model, developed by the Kelly laboratory, is able to distinguish between benznidazole (clinically effective) and posaconazole (clinically ineffective).
1.2 Washout assay: Vero cells were infected overnight at MOI 5 with T. cruzi X10/7 A1 trypomastigotes in MEM media (Gibco) containing 10% FCS (Hyclone) followed by washing of the monolayer to remove any extracellular trypomastigotes. 24 h later, infected cells were trypsinised and plated in T25 flasks in presence of compounds at the indicated concentrations and incubated for 8 days in MEM media (Gibco) containing 1% FCS. Four days into the treatment the media was replaced with fresh compound-containing media. After the treatment period, monolayers were washed extensively. The cultures were then maintained, replacing media twice weekly, until trypomastigotes could be observed by light microscopy. Observations were carried out twice weekly for up to 60 days post washout.
Results for three independent washout experiments (experiment c is reported in the main manuscript). T. cruzi infected Vero cells were treated for 8 days at the indicated concentrations (compounds replenished after 4 days), followed by extensive washing to remove compounds and incubation until parasites were observed microscopically. ^a day after washout of compounds on which egressed parasites were detected first.

[3] = target: T. cruzi CYP51 (Trypanosoma cruzi, UniProt Q7Z1V1); test: CYP51 assay; type: biochemical; settings: read-out: T.cruzi CYP51 (pIC50) (converted)
Protocol: 1.4 CYP51 assay: Potency against T. cruzi CYP51 was determined as previously described in [3].

[4] = Intrinsic clearance in mouse liver microsomes; type: in vitro ADME; settings: mouse liver microsomal intrinsic clearance
Protocol: 2.2 Intrinsic clearance: This assay was conducted as previously described in [5].

[5] = Aqueous (kinetic) solubility by CAD; type: physicochemical; settings: kinetic solubility measured by CAD
Protocol: 2.1 Aqueous solubility: This assay was conducted as previously described in [4].

[6] = ChromLogD pH7.4 (chromatographic hydrophobicity index); type: physicochemical; settings: pH 7.4; CHIpH7.4 × 0.0857–2; read-out: ChromlogDpH7.4
[7] = system: intracellular T. cruzi X10/7-E2Crimson; test: Rate-of-kill studies; type: cell-based, Trypanosoma cruzi; settings: compared with posaconazole (CYP51 inhibitor)
Protocol: 1.3 Rate-of-kill studies: Experiments with intracellular T. cruzi X10/7-E2Crimson were carried out as previously described in [2].

[8] = system: T. cruzi; test: Acute Chagas disease mouse efficacy study (bioluminescence imaging); type: in vivo, Trypanosoma cruzi
Protocol: as §1, with “Compound 1 was dosed twice daily at 50 mg/kg for 5 days in an acute Chagas disease mouse efficacy study. This mouse model, developed by the Kelly laboratory, is able to distinguish between benznidazole (clinically effective) and posaconazole (clinically ineffective).” left out
Fig. 2 Results of acute T. cruzi infection efficacy study. […] 5 day dosing begins on day 14 (b) Quantification (Total Flux [p/s]) of combined ventral and dorsal bioluminescence for the mice shown in (c). […] (For interpretation of the references to colour in this figure legend, the reader is referred to the Web version of this article.) […]

[9] = Blood exposure in the acute efficacy study; type: in vivo, mouse; settings: days 1 and 5; 50 mg/kg b.i.d. with 1-ABT
Protocol: as §1, with “Compound 1 was dosed twice daily at 50 mg/kg for 5 days in an acute Chagas disease mouse efficacy study. This mouse model, developed by the Kelly laboratory, is able to distinguish between benznidazole (clinically effective) and posaconazole (clinically ineffective).” left out
Fig. 2 Results of acute T. cruzi infection efficacy study. […] 5 day dosing begins on day 14 (b) Quantification (Total Flux [p/s]) of combined ventral and dorsal bioluminescence for the mice shown in (c). […] (For interpretation of the references to colour in this figure legend, the reader is referred to the Web version of this article.)

[10] = system: intracellular T. cruzi; parameters: method as in PMID 25740547; settings: HTS in NIH-3T3 fibroblasts; cited from earlier work

T. cruzi CYP51, sequence (Q7Z1V1 whole entry): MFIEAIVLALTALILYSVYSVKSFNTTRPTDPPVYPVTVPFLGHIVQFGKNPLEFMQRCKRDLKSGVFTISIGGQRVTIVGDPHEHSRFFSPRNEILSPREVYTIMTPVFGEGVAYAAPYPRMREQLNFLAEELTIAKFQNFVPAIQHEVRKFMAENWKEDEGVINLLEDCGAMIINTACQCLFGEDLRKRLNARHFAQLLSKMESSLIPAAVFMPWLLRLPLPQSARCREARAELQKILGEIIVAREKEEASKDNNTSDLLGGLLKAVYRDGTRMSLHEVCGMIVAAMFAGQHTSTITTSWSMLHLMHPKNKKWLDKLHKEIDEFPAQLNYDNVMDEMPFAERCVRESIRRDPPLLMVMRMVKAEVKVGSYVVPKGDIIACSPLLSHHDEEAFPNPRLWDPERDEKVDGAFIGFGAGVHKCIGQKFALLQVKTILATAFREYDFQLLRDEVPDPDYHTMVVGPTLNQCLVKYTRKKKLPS

| Structure (SMILES) | EC50 [1] | Mouse CLi [4] | solubility [5] | chromatographic logD [6] | Activity in the intracellular T. cruzi assay (in words) [1] | other results |
| --- | --- | --- | --- | --- | --- | --- |
| Cc1ccc(S(=O)(=O)Nc2ccc(CN3CCN(C(=O)c4cccc(Cl)c4)CC3)cc2)cc1 [Compound 1, N-(4-((4-(3-chlorobenzoyl)piperazin-1-yl)methyl)phenyl)-4-methylbenzenesulfonamide] | 0.158 µM | >50 mL/min/g | 38 µM (≈ 18.4 µg/mL) | 5.8 |  | Time after washout until parasite relapse was observed ([2]; 20- to 30-fold the EC50 for 8 days, re-supplemented after 4 days): ~2 weeks; Relapse Day ([2]; experiment a, 5 µM, 32-fold EC50): 11 days; Relapse Day ([2]; experiment b, 5.5 µM, 35-fold EC50): 14 days; Relapse Day ([2]; experiment c, 3.9 μM, 25-fold EC50, day after washout on which egressed parasites first detected): 11 days; IC50 [3]: 20 µM; Rate-of-kill profile [7]: faster kill profile; Outcome after immunosuppression ([8]; 50 mg/kg b.i.d. for 5 days with 1-ABT, cyclophosphamide 200 mg/kg i.p. days 28, 32, 36): relapse is observed post immunosuppression; Parasite burden ([8]; 50 mg/kg b.i.d. for 5 days, 1-ABT 50 mg/kg pre-treatment, compared to vehicle): reduction in parasite burden compared to vehicle; Total blood exposure relative to in vitro EC99 [9]: exceeded the in vitro EC99 for the duration of dosing |
| COc1ccc(S(=O)(=O)Nc2ccc(CN3C[C@@H]4C[C@H]3CN4C(=O)c3cccc(Cl)c3)cc2)cc1 [Compound 39, N-(4-(((1S,4S)-5-(3-chlorobenzoyl)-2,5-diazabicyclo[2.2.1]heptan-2-yl)methyl)phenyl)-4-methoxybenzenesulfonamide] | 15.8 µM | >50 mL/min/g | 47 µM (≈ 24.1 µg/mL) | 5.1 |  |  |
| COc1ccc(S(=O)(=O)Nc2ccc(CCN3CCN(C(=O)c4cccc(Cl)c4)CC3)cc2)cc1 [Compound 40, N-(4-(2-(4-(3-chlorobenzoyl)piperazin-1-yl)ethyl)phenyl)-4-methoxybenzenesulfonamide] | 5.01 µM | >50 mL/min/g | 35 µM (≈ 18 µg/mL) | 5.5 |  |  |
| COc1ccc(S(=O)(=O)Nc2nnc(CN3CCN(C(=O)c4cccc(Cl)c4)CC3)o2)cc1 [Compound 41, N-[5-[[4-(3-chlorobenzoyl)piperazin-1-yl]methyl]-1,3,4-oxadiazol-2-yl]-4-methoxy-benzenesulfonamide] | > 50.1 µM | 0.6 mL/min/g | ≥ 404 µM | 1.9 | inactive |  |
| COc1ccc(S(=O)(=O)Nc2ncc(CN3CCN(C(=O)c4cccc(Cl)c4)CC3)cn2)cc1 [Compound 42, N-(5-((4-(3-chlorobenzoyl)piperazin-1-yl)methyl)pyrimidin-2-yl)-4-methoxybenzenesulfonamide] | > 50.1 µM | 1.0 mL/min/g | ≥ 345 µM | 3.1 | lacked any activity |  |
| COc1ccc(S(=O)(=O)Nc2cnc(CN3CCN(C(=O)c4cccc(Cl)c4)CC3)nc2)cc1 [Compound 43, N-(2-((4-(3-chlorobenzoyl)piperazin-1-yl)methyl)pyrimidin-5-yl)-4-methoxybenzenesulfonamide] | > 50.1 µM | 1.5 mL/min/g | ≥ 474 µM | 2.9 | lacked any activity |  |
| COc1ccc(S(=O)(=O)Nc2ccc(CN3CCN(C(=O)c4cccc(Cl)c4)CC3)nc2)cc1 [Compound 44, N-(6-((4-(3-chlorobenzoyl)piperazin-1-yl)methyl)pyridin-3-yl)-4-methoxybenzenesulfonamide] | 7.94 µM | 39 mL/min/g | ≥ 373 µM | 4.5 |  |  |
| COc1ccc(S(=O)(=O)Nc2cnc(CN3CCN(C(=O)c4cccc(Cl)c4)CC3)cn2)cc1 [Compound 45, N-(5-((4-(3-chlorobenzoyl)piperazin-1-yl)methyl)pyrazin-2-yl)-4-methoxybenzenesulfonamide] | > 50.1 µM | 1.3 mL/min/g | ≥ 414 µM | 2.8 | lacked any activity |  |
| COc1ccc(S(=O)(=O)Nc2ncc(CN3CCN(C(=O)c4cccc(Cl)c4)CC3)nc2OC)cc1 [Compound 46, N-(5-((4-(3-chlorobenzoyl)piperazin-1-yl)methyl)-3-methoxypyrazin-2-yl)-4-methoxybenzenesulfonamide] | > 50.1 µM | 1.2 mL/min/g | ≥ 443 µM | 4 | lacked any activity |  |
| Cc1ccc(S(=O)(=O)Nc2ccc(CN3CCN(C(=O)c4cccc(C#N)c4)CC3)cc2)cc1 [TCMDC-143497] |  | 30 mL/min/g | 85 µM (≈ 40.3 µg/mL) | 4.8 |  | T. cruzi pEC50 (reported potency) [10]: 6.4 |
| O=C(Cn1ccnc1[N+](=O)[O-])NCc1ccccc1 [benznidazole] |  |  |  |  |  | Relapse Day ([2]; experiment a, replicate 1, 36 µM, 12.5-fold EC50): 18 days; Relapse Day ([2]; experiment a, replicate 2, 36 µM, 12.5-fold EC50): 14 days; Relapse Day ([2]; experiment b, 36 µM, 12.5-fold EC50): 14 days; Relapse Day ([2]; experiment c, 36 μM, 12.5-fold EC50): 18 days; Relapse Day ([2]; experiment c, 144 μM, 50-fold EC50, observed up to 60 days): >60 days |
| CC[C@@H]([C@H](C)O)n1ncn(-c2ccc(N3CCN(c4ccc(OC[C@@H]5CO[C@@](Cn6cncn6)(c6ccc(F)cc6F)C5)cc4)CC3)cc2)c1=O [posaconazole] |  |  |  |  |  | Relapse Day ([2]; experiment a, 0.2 µM, 50-fold EC50): 7 days; Relapse Day ([2]; experiment b, 0.2 µM, 50-fold EC50): 11 days; Relapse Day ([2]; experiment c, 0.1 μM, 25-fold EC50): 7 days |
